Measured values as given in PMC10301922, “Anti-Oxidant, Anti-Mutagenic Activity and Safety Evaluation of Antrocin” (Toxics, 2023).
In brackets after ≈: the same amount, converted by molar mass. Several values for one entry are separate records, joined by “and”; a condition that tells them apart may be missing. Identical values can stand only once. Entries after “also recorded” stand apart in the source; their conditions may differ. Like-named read-outs stand apart in the source and are kept apart here.

Assays:
Sprague Dawley rats = assay: 28-day oral toxicity test: clinical signs, mortality, overall result
[1] = test system: five different strains of Salmonella typhimurium; assay: Bacterial toxicity test prior to the Ames test; details: all tester strains
Total polyphenol content = details: 10 mg/mL antrocin
Procedure: We added 40–50 μL of sample to a 96-well plate and made it up to 100 μL with ddH2O. For each sample, a parallel sample was prepared as a sample background control. Vanillic acid was used as a positive control. We added 50 μL of 50 mM vanillic acid solution per well to the desired wells and made it up to 100 μL with ddH2O. We adjusted the volume of all standard curves to 100 µL with ddH2O. We then added 20 μL PC (Phenolic Compounds) Probe to the standard curve and sample reaction wells, and 20 μL PC Assay Buffer to the sample background wells. For standard curve preparation, we added 0, 2, 4, 6, 8, and 10 μL of 1 mM catechin standards to clear 96-well plates to generate 0, 2, 4, 6, 8, and 10 nmol/well catechin standard, respectively. We adjusted the volume of all standard curves to 100 µL with ddH2O. […] The absorbance was measured at 480 nm.
We subtracted the 0 nmol standard OD480 value from all standard curve readings and drew a catechin standard curve. If the sample background well reads were significant, the sample background control reads were subtracted from their paired sample reads. […]
B stands for the amount of diazo chromophore, calculated from the standard curve (nmol of catechin); D stands for the sample dilution factor (for undiluted samples, D = 1); V stands for the volume of sample added to the well (in µL).

[2] = Solubility in 95% ethanol; type: physicochemical; details: organic solvent or mixture
Procedure: Optical pure antrocin, with a purity > 95%, was provided by Professor Zhen Yang at the School of Chemical Biology and Biotechnology, Peking University. […] A 50 mg/mL ethanol solution of antrocin was prepared as a stock solution, and was diluted before testing. All of the samples were stored at 4 °C.

[3] = test system: Salmonella typhimurium TA100
[4] = test system: Salmonella typhimurium TA98
[5] = test system: Salmonella typhimurium TA1537; assay: Ames test (plate incorporation), TA1537
[6] = TA98, with S9, mutagen 2-AA 25 μg/plate, antrocin 0.025 mg/plate
[7] = TA98, with S9, mutagen 2-AA 25 μg/plate, antrocin 0.05 mg/plate
[8] = TA98, with S9, mutagen 2-AA 25 μg/plate, antrocin […]
[9] = TA98, without S9, mutagen 4-NQO 2.5 μg/plate, antrocin 0.025 mg/plate
[10] = TA98, without S9, mutagen 4-NQO 2.5 μg/plate, antrocin 0.05 mg/plate
[11] = TA98, without S9, mutagen 4-NQO 2.5 μg/plate, antrocin […]

**Q.** With `C=C1CC[C@H]2C(C)(C)CCC[C@@]23C(=O)OC[C@@H]13` [Antrocin, (-)-Antrocin] as the compound, how does the “toxic effects according to hematology, serum chemistry, urine analysis, histopathological examinations” value (Sprague Dawley rats; 7.5 or 37.5 mg/kg oral 28 d) read?
**A.** did not produce any toxic effects

**Q.** And the “highest dosage with no adverse effect” value (Sprague Dawley rats; 28-day oral toxicity test in rats)?
**A.** 37.5 mg/kg/day

**Q.** What about the maximum non-toxic concentration [1] of the same compound?
**A.** 0.05 mg/plate

**Q.** And the “Total Phenolic Contents (mM Catechin Equivalents)” value (Total polyphenol content)?
**A.** 0.016 ± 0.000 mM Catechin equivalents and 0.016 ± 0.000 ^1 mM Catechin equivalents

**Q.** And the solubility [2]?
**A.** ~133 mg/mL (≈ 568 mM)

**Q.** What about the “Number of Revertant” value ([3]; TA100, with S9, 0.003125 mg/plate) of the same compound?
**A.** 194.3 ± 5.4 Colony/Plate

**Q.** And the “Number of Revertant” value ([3]; TA100, with S9, 0.00625 mg/plate)?
**A.** 185.0 ± 6.5 Colony/Plate

**Q.** What about the “Number of Revertant” value ([3]; TA100, with S9, 0.025 mg/plate) of the same compound?
**A.** 197.0 ± 8.8 Colony/Plate

**Q.** What about the “Number of Revertant” value ([3]; TA100, with S9, 0.05 mg/plate) of the same compound?
**A.** 195.3 ± 2.9 Colony/Plate

**Q.** And the “Number of Revertant” value ([3]; TA100, without S9, 0.003125 mg/plate)?
**A.** 170.7 ± 1.2 Colony/Plate

**Q.** What about the “Number of Revertant” value ([3]; TA100, without S9, 0.00625 mg/plate) of the same compound?
**A.** 169.3 ± 8.2 Colony/Plate

**Q.** And the “Number of Revertant” value ([3]; TA100, without S9, 0.025 mg/plate)?
**A.** 181.7 ± 5.7 Colony/Plate

**Q.** And the “Number of Revertant” value ([3]; TA100, without S9, 0.05 mg/plate)?
**A.** 166.7 ± 4.5 Colony/Plate

**Q.** What about the bacterial mutagenicity ([3]; preliminary tests, TA100, 100 μg/plate) of the same compound?
**A.** no bacterial mutagenicity

**Q.** And the “Inhibition (%) of mutagenicity” value [4, 6]?
**A.** 18.17%

**Q.** And the “Number of Revertant” value [4, 6]?
**A.** 4959.0 ± 739.1 Colony/Plate

**Q.** What about the “Inhibition (%) of mutagenicity” value [4, 7] of the same compound?
**A.** 33.67%

**Q.** And the “Number of Revertant” value [4, 7]?
**A.** 4024.0 ± 251.1 Colony/Plate

**Q.** What about the “Inhibition (%) of mutagenicity” value [4, 8] of the same compound?
**A.** 6.21%

**Q.** What about the “Number of Revertant” value [4, 8] of the same compound?
**A.** 5680.3 ± 640.7 Colony/Plate

**Q.** What about the antimutagenic agent strength ([4]; TA98, without S9, against direct mutagen 4-NQO) of the same compound?
**A.** strong anti-mutagenic agent; also recorded: very strong anti-mutagenic effect

**Q.** What about the “Inhibition (%) of mutagenicity” value [4, 9] of the same compound?
**A.** 51.03%

**Q.** And the “Number of Revertant” value [4, 9]?
**A.** 67.7 ± 2.5 Colony/Plate

**Q.** And the “Inhibition (%) of mutagenicity” value [4, 10]?
**A.** 98.62%

**Q.** What about the “Number of Revertant” value [4, 10] of the same compound?
**A.** 21.7 ± 1.5 Colony/Plate

**Q.** What about the “Inhibition (%) of mutagenicity” value [4, 11] of the same compound?
**A.** 35.17%

**Q.** What about the “Number of Revertant” value [4, 11] of the same compound?
**A.** 83.0 ± 3.6 Colony/Plate

**Q.** What about the “Number of Revertant” value ([5]; TA1537, with S9, 0.003125 mg/plate) of the same compound?
**A.** 11.7 ± 1.9 Colony/Plate

**Q.** And the “Number of Revertant” value ([5]; TA1537, with S9, 0.00625 mg/plate)?
**A.** 6.7 ± 2.4 Colony/Plate

**Q.** What about the “Number of Revertant” value ([5]; TA1537, with S9, 0.025 mg/plate) of the same compound?
**A.** 10.3 ± 2.1 Colony/Plate

**Q.** And the “Number of Revertant” value ([5]; TA1537, with S9, 0.05 mg/plate)?
**A.** 6.0 ± 1.4 Colony/Plate

**Q.** And the “Number of Revertant” value ([5]; TA1537, without S9, 0.003125 mg/plate)?
**A.** 14.3 ± 2.6 Colony/Plate

**Q.** What about the “Number of Revertant” value ([5]; TA1537, without S9, 0.00625 mg/plate) of the same compound?
**A.** 8.7 ± 0.5 Colony/Plate

**Q.** What about the “Number of Revertant” value ([5]; TA1537, without S9, 0.025 mg/plate) of the same compound?
**A.** 13.0 ± 2.2 Colony/Plate

**Q.** What about the “Number of Revertant” value ([5]; TA1537, without S9, 0.05 mg/plate) of the same compound?
**A.** 9.7 ± 0.9 Colony/Plate
